Reference: article PMC4974736, “Corynebacterium glutamicum possesses β-N-acetylglucosaminidase” (BMC Microbiology, 2016)

Assays:
Assay type in all cases: biochemical
[1] = target: T1, ChiB (Serratia marcescens, UniProt P11797); experiment: p-nitrophenol release at […] nm; conditions: 100 mM phosphate pH 7.0; cell extract and supernatant of overexpressing C. glutamicum; turnover only
T1 construct: native form or fused to TAT signal peptide of Cg0955 (SP0955); pEKEx3 in C. glutamicum; cell extract and supernatant, not purified
T1 sequence (P11797 1-499 limits assumed): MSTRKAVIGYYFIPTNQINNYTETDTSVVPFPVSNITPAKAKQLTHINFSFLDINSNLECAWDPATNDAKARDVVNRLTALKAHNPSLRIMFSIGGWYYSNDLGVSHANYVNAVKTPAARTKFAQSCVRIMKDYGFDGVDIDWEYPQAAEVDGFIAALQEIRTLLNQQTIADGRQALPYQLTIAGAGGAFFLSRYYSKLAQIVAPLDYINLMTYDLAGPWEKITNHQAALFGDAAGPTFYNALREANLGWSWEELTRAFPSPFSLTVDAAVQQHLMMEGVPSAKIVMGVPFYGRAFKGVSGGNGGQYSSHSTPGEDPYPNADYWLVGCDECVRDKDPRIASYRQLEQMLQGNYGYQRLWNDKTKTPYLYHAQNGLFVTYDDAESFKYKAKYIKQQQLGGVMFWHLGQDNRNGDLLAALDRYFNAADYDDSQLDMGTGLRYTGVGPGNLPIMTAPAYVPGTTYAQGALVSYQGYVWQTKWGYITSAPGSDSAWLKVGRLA

[2] = target: T2, NagA2 fused to the C. glutamicum PhoD signal peptide (PhoD-nagA2) (Corynebacterium glutamicum, UniProt Q8NLT5); experiment: p-nitrophenol release at […] nm, Eadie-Hofstee plot; conditions: 100 mM phosphate pH 7.0; culture supernatant of overexpressing C. glutamicum
T2 construct: gene Cgl2852; native signal peptide replaced by TAT signal peptide of PhoD (cg2485), expected to be cleaved on export; pEKEx3 in C. glutamicum; culture supernatant, not purified

[3] = target: T3, NagA2 lacking its own signal peptide (SP-less-nagA2) (Corynebacterium glutamicum, UniProt Q8NLT5); experiment: p-nitrophenol release at […] nm, Eadie-Hofstee plot; conditions: 100 mM phosphate pH 7.0; cell extract fraction of overexpressing C. glutamicum
T3 construct: gene Cgl2852; predicted native signal peptide removed; overexpressed from pEKEx3 in C. glutamicum; cell extract, not purified

[4] = target: T4, NagZ (Bacillus subtilis, UniProt P40406); experiment: p-nitrophenol release at […] nm; conditions: 100 mM phosphate pH 7.0; cell extract of overexpressing C. glutamicum; turnover only
T4 construct: codon-optimized synthetic gene in pEKEx3, overexpressed in C. glutamicum; cell extract, not purified
T4 sequence (P40406 17-642): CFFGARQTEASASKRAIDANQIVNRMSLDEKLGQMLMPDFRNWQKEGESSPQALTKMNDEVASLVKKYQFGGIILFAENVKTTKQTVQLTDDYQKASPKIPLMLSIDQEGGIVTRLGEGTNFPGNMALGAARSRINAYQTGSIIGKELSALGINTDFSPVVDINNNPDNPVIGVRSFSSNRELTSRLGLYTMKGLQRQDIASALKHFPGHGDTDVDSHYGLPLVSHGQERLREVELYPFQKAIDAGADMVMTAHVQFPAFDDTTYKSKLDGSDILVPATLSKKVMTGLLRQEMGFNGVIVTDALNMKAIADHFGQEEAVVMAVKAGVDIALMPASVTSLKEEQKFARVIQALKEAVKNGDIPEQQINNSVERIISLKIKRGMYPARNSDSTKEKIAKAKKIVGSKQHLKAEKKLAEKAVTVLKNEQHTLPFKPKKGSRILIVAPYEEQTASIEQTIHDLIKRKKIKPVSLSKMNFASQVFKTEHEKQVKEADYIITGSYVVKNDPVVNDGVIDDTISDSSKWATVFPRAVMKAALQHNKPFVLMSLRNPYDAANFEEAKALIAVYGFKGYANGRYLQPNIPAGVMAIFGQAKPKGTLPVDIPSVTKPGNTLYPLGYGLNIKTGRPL

T2 sequence (Q8NLT5 entry or part of it): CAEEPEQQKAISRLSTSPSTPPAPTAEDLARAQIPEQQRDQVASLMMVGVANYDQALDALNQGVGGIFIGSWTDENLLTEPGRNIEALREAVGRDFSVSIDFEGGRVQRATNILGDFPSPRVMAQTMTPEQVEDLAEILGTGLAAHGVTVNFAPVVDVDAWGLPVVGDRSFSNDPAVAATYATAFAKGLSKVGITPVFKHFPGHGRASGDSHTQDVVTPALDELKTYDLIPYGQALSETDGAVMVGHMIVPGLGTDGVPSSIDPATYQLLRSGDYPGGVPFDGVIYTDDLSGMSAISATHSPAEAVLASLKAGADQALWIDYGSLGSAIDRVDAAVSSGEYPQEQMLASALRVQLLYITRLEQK
T3 sequence (Q8NLT5 entry or part of it): as above

Row | SMILES | p-nitrophenol release at 405 nm [1] | Km [2] | Km [3] | p-nitrophenol release at 405 nm [4]
1 | CC(=O)N[C@H]1[C@H](Oc2ccc([N+](=O)[O-])cc2)O[C@H](CO)[C@@H](O[C@@H]2O[C@H](CO)[C@@H](O)[C@H](O)[C@H]2NC(C)=O)[C@@H]1O [4-nitrophenyl N,N’-diacetyl-β-D-chitobioside] | chitinase activity was quantified by measuring the hydrolysis of p-nitrophenol from 4-Nitrophenyl N,N’-diacetyl-β-D-chitobioside | 270 ± 66 µM | 266 ± 37 µM | 
2 | CC(=O)N[C@H]1[C@H](Oc2ccc([N+](=O)[O-])cc2)O[C@H](CO)[C@@H](O)[C@@H]1O [4-Nitrophenyl N-acetyl-β-D-glucosaminide] |  |  |  | NagZ produced in C. glutamicum led to an intracellular specific activity of N-acetylglucosaminidase
